Consider one compound from patent US9126999B2, “Tetrahydropyrazolopyrimidine compounds” (EISAI R&D MANAGEMENT CO., LTD., priority 2012, dated 2015).

For assay [1], the system named is T1, Human TLR7/8.
T1 construct: IC50; other: Hu PBMC; ligand RNA-Ig; analyte IP-10
Nature of the assay: Human PBMC cell-based assay, RNA-Ig (SL4-Ig) stimulus, cytokine ELISA. To be noted: Hu PBMC; ligand RNA-Ig; analyte IP-10. In short, it runs like this: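 Ficoll-isolated human PBMC treated in triplicate with antagonist (final 0.1% DMSO), then stimulated with RNA-Ig (SL4-Ig) complex preincubated 15-30 min. Incubation 20 h at 37° C., 5% CO2; supernatant cytokines quantified by ELISA.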
A general note: ELISA stands for enzyme-linked immunosorbent assay.

Assay [2] has as its target T2, Human TLR4 (Homo sapiens, UniProt O00206). The experiment in a line: Human PBMC cell-based assay, LPS stimulus, IL-6 ELISA. On the set-up: endogenous in cells; host or cells: primary human PBMC from healthy donor blood. To be noted: Hu PBMC; ligand LPS; analyte IL-6. The protocol: Human peripheral blood mononuclear cells (PBMC) were isolated from freshly-drawn heparinized (10 USP units/ml, Hospira, Lakeforest, Ill.) healthy donor whole blood by density gradient (Histopaque® 1077, Sigma, Inc., St. Louis, Mo.). Briefly, 25 ml blood was diluted with 15 ml PBS (without Ca^2+, Mg^2+) in a 50 ml conical tube, and 12 ml Histopaque was underlaid using a spinal needle. Tubes were centrifuged for 45 minutes at 1200 rpm (350×g), and PBMC were collected from the buffy coat. Cells were then washed twice in PBS, and red blood cells were lysed by suspension in 5 ml ammonium chloride solution (1× Red Blood Cell Lysis Buffer, eBioscience) for 5 minutes at room temperature. […]
Antagonist compounds solubilized and serial diluted in 100% DMSO were added in triplicate to cells to yield a final concentration of 0.1% DMSO (v/v). […] Cell culture supernatants were collected, and levels of various human cytokines were assessed as indicated by standard ELISA procedure according to the manufacturer's recommended protocol (BD Biosciences, Inc., San Diego, Calif.).

In assay [3] the target is T2, Human TLR4. The experiment in a line: HEK-293 NF-kappaB luciferase reporter assay, LPS stimulus. Also noted: engineered to stably and individually express human TLR4, TLR7 or TLR9 full-length ORF cDNAs; expressed in transfected cells; host or cells: HEK-293 (ATCC) with ELAM-1 NF-kappaB luciferase reporter. The assay is classed as cell-based. To be noted: ligand LPS, analyte NFkB-luciferase. The source says:
In vitro pharmacology: HEK-293 cells (ATCC) were engineered to stably express a NF-kappaB transcription factor inducible E-selectin (ELAM-1) luciferase reporter derived from the plasmid pGL3 (Promega) containing base pairs −2241 bp to −254 bp from the promoter of the human E-selectin gene (Accession No. NM_000450). These cells were then subsequently engineered to stably and individually express human TLR4, TLR7 or TLR9 full-length ORF cDNAs. Human TLR4 cDNA (Accession No. NM_138554) was cloned into pcDNA 3.0 expression vector (Invitrogen). TLR4 transfected cells were also engineered to express human MD-2 co-receptor [MD-2 cDNA (Accession No. NM_015364) was cloned into the pEF-BOS vector] and were supplemented with 10 nM soluble CD14 (R&D Systems) in the media to optimize LPS responsiveness. Human TLR9 cDNA (Accession No. NM_017442) was cloned into the pBluescript II KS vector (Agilent). Human TLR7 cDNA (Accession No. NM_016562) was obtained from OriGene. HEK-293 cells stably expressing human TLR8 (Accession No. NM_138636) or mouse TLR7 (Accession No. NM_133211) were purchased from InvivoGen and were then stably transfected with pNiFty2(NF-kappaB)-luciferase reporter plasmid (InvivoGen). […]
Background: Reporter assays use an easily measured gene product as a stand-in for the process of interest.

In general, IC50 refers to the concentration at which inhibition is half-maximal.

T2 sequence (O00206 24-839): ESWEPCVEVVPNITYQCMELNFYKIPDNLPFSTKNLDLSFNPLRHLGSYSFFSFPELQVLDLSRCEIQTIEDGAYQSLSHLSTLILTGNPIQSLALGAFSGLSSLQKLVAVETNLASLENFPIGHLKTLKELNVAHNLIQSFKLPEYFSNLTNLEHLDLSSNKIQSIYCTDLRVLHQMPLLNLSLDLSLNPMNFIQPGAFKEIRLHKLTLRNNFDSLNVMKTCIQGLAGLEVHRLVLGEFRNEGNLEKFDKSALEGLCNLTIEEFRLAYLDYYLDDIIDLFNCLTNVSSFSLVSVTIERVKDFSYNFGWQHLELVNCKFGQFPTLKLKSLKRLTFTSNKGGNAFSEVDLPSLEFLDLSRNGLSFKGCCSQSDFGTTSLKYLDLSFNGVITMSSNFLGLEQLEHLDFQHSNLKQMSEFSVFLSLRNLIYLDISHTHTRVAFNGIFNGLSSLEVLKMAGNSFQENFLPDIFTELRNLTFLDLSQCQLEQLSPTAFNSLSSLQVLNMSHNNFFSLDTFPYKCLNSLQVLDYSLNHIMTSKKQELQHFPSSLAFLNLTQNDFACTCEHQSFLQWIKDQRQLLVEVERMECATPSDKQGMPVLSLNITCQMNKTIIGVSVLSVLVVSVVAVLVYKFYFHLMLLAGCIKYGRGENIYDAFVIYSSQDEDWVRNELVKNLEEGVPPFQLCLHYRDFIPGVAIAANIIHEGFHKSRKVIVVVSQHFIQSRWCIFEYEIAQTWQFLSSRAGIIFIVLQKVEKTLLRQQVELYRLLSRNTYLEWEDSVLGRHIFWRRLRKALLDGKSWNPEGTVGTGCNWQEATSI
T2 sequence (Q9Y6Y9 19-160 partner): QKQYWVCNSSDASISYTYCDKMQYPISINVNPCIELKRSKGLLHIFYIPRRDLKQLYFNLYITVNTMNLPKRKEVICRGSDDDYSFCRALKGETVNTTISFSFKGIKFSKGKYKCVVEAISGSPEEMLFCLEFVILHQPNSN

For the compound `COc1ccc([C@@H]2C[C@H](C(F)(F)F)n3nc(-c4ccc(C(=O)N5CCNCC5)cc4)cc3N2)cc1OC` [ER-892887, (4-((5S,7R)-5-(3,4-dimethoxyphenyl)-7-(trifluoromethyl)-4,5,6,7-tetrahydropyrazolo[1,5-a]pyrimidin-2-yl)phenyl)(piperazin-1-yl)methanone], the IC50 in assay [1] is 0.045 µM; in assay [2], above 10 µM; in assay [3], above 10 µM.
